Test results reported in US20230120666A1, “EXCIPIENTS PROVIDING STABILIZATION AND ENHANCED WATER SOLUBILIZATION AND THEIR USES” (priority 2020, published 2023).
“Also recorded” adds a separate entry of the source.

Columns and labels:
[1] = Storage stability of 20 wt % SupraPlex formulations in sealed plastic vial at RT; type: physicochemical; conditions: loaded in 20 wt % Run #65 in DI water, pH 2.5±0.5, sealed poly(propylene) vial, 12 months
[2] = literature value, Modasiya et al. 2012; cited from earlier work
[3] = CBD water solubility / solubility enhancement by UV-Visible spectrometry; type: physicochemical; conditions: for solubility: thermodynamic from solid
Experimental: The General Method used to determine the solubility of CBD is as follows:
Water (1 mL) was added to one of the vials. […] A third vial was prepared with 100 mg of the agent, 1 mL of water, and no CBD for use as a background standard for correcting UV-visible spectra. All three vials were processed (ultrasound) together to minimize variations.
CBD solubility was determined by UV-Visible spectrometry.
Three methods were used for background subtraction: • 1. For agents with very little color, the CBD is seen as a peak on the side of a peak that can be readily measured by drawing a tangent line on the interfering peak to estimate a baseline. This is usable for pure samples, such as the commercial cyclodextrins. • 2. […] For strongly colored agents, small deviations in concentration can overwhelm the CBD signal. In these cases, the full spectra are measured and the standard is multiplied by a weighting factor before subtraction. The weighting factor is adjusted to give close to a zero absorbance at many wavelengths across the difference spectrum and the CBD spectrum is what remains.
CBD concentration is calculated as the absorbance at 274 nm in excess of the retentate absorbance relative to the absorbance of the CBD standard. Abs means absorbance in Table 1.

[4] = In vitro dissolution of Polymer Adducts and Hybrid Excipients; type: physicochemical; conditions: 0.1 N HCl pH 1.2, SGF pH 1.2, PB pH 6.8, SIF pH 6.8; 37±0.5° C.
Experimental: Simulated Gastric Fluid (SGF pH 1.2), Phosphate Buffer (PB pH 6.8) and Simulated Intestinal Fluid (SIF pH 6.8) as dissolution medium. […] At predetermined time intervals, 1 mL samples were withdrawn and replenished with the same volume of fresh medium. The RSV and CBD content in these samples were determined by using a UV-visible Spectrophotometer (U-3010, Hitachi, Japan) and specific amounts of RSV and CBD dissolved and were monitored and estimated as a function of time.
This multiple, hybrid excipient was then lyophilized and used for dissolution studies.

[5] = tested on: healthy male volunteers; assay: In vivo human oral ingestion study of CBD-SupraPlex excipient; conditions: for effects experienced within 15-30 min after ingestion: CBD-SupraPlex (Run #181) 35.6 μg/mL in DI water
Experimental: A highly documented “in house” CBD-SupraPlex® human oral ingestion study was performed to further evaluate the SupraPlex® Excipients in humans. This study involved two healthy male volunteers: Subject #1 was […], 5′10″, 190 lbs., […] an experienced CBD/THC consumer, and Subject #2 was […], 5′6″, 160 lbs., a naïve, and a THC/CBD non consumer […]).
The CBD-SupraPlex® excipient samples were prepared under sanitary, GLP conditions. All CBD dose concentrations were confirmed by standard HPLC protocols.
The CBD-SupraPlex® excipient samples used for oral ingestion were administered sequentially in three, 10 mL ingestion portions as clear, transparent DI aqueous solutions. The 1st portion was ingested in a sublingual mode and last two portions were ingested by normal swallowing. The esthetic taste features of CBD-SupraPlex® excipient (pH2), in DI water were: sour, citrus-lemon, (80% lemon-10% salt taste), slight terpene, slippery film like texture, but with no after taste. When used in ginger ale, it gave a very pleasant taste. At pH4, the sourness is eliminated to give a pleasant slight lemon taste.
Test 1: 10 mL containing 35.6 μg/mL of CBD in DI water, sublingual over 15 min. Test 2: 15 min. after Test 1, 10 mL/35.6 μg/mL of CBD in DI water, normal swallow over 15 min. Total CBD ingested=712 μg in 20 mL DI water over 30 min. Test 3: 15 min. after Test 2, repeat of Test 2 Total CBD ingested=1068 μg in 30 mL DI water over 45 min. Test 4: 2 days later, 40 mL/35.6 μg/mL of CBD in DI water, normal swallow before evening sleep. […] Subject #1 could rarely experience more than 4 hr. normal sleeper night, but after Test 4 they took a 35.6 μg/mL of CBD in 40 mL DI water, sublingual before sleep 2 days after Test 4. When taken before bedtime, about 1 mg CBD dose level gave an excellent, sustained 7-8 hr. sleep cycle with a rested, clear-headed wake-up, no fogginess or after effect.

[6] = Koch et al. 2020, cited from earlier work
[7] = CBD water solubility / solubility enhancement by UV-Visible spectrometry; type: physicochemical; conditions: CBD 1 g in 100 mL water, Qsonica Q2000 1 hr at 100% amplitude, no excipient
[8] = Excipient assisted resveratrol water solubility enhancement; type: physicochemical; conditions: water with the Excipients of the invention (PHC), aqueous with cosolvent or surfactant or cyclodextrin, thermodynamic from solid
[9] = literature value, Chauhan et al.; cited from earlier work

Compound: COc1cc(/C=C/C(=O)CC(=O)/C=C/c2ccc(O)c(OC)c2)ccc1O [curcumin]
- solution depletion [1]: essentially no solution depletion
- naked curcumin solubility in DI water [2]: 2.67 µg/mL

Compound: C=C(C)[C@@H]1CCC(C)=C[C@H]1c1c(O)cc(CCCCC)cc1O [CBD, cannabidiol]
- increased solubility of CBD ([3]; in the presence of naked 2HPBCD): 2508.7 fold
- increased solubility of CBD ([3]; in the presence of naked ACD): 3066.2 fold
- increased solubility of CBD ([3]; in the presence of naked GCD): 278.7 fold
- increased solubility of CBD ([3]; sonication protocol in DI water, no excipient): 313.6 fold
- solubility ([3]; water with the Excipients of the invention, aqueous with cosolvent or surfactant or cyclodextrin, read-out: water solubility of CBD, enhanced): 500 to 15100 µg/mL
- solubility ([3]; water, high power sonication, read-out: Water Solubility of CBD): 31 µg/mL
- solubility ([3]; water, low power sonication, read-out: Water Solubility of CBD): 0.4 µg/mL
- increased solubility of CBD ([3]; with Run #1 retentate (Example 1), baseline not stated): 2717.8 fold
- increased solubility of CBD ([3]; with Run #3 retentate (Example 2), baseline not stated): 2673.2 fold
- increased solubility of CBD ([3]; with Run #4 retentate (Example 3), baseline not stated): 4843.2 fold
- increased solubility of CBD ([3]; with Run #12 insoluble nanosponge suspension (Example 5), baseline not stated): 3797.9 fold
- increased solubility of CBD ([3]; with Run #19 retentate (Example 4), baseline not stated): 4634.1 fold
- solution depletion [1]: essentially no solution depletion
- in vitro dissolution performance [4]: saturation and incomplete dissolution profiles; also recorded: insoluble
- sustained sleep cycle ([5]; Subject #1, about 1 mg CBD as CBD-SupraPlex (Run #181) before bedtime): 7 to 8 h
- effects experienced within 15-30 min after ingestion ([5]; Subject #1, experienced consumer): tingling in fingers, heightened focus, higher energy, relaxed feeling, reduced anxiety, some thirst noted
- effects experienced within 15-30 min after ingestion ([5]; Subject #2, naïve non consumer): peaceful, relaxed, reduced anxiety, remained alert/coordinated, enhanced talking, laughing, higher energy movement, then some drowsiness after 1 hr.
- CBD in water alone ([6]; literature value): 0.0000627 mg/mL
- Water Solubility of CBD ([6]; no sonication): 0.0627 µg/mL
- μg-CBD [7]: 31.36 µg

Compound: Oc1ccc(C=Cc2cc(O)cc(O)c2)cc1 [resveratrol]
- solubility [8]: 5010 to 30600 µg/mL
- solution depletion [1]: essentially no solution depletion
- in vitro dissolution performance [4]: saturation and incomplete dissolution profiles
- naked resveratrol solubility in DI water [9]: 0.04 µg/mL
